{
  "source": "PubChem BioAssay AID463203",
  "about": "(Broad Institute, 2010)",
  "note": "The source made the active and inactive calls.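 How the source made its calls: active means more than half of replicate measurements showing over 20% loss of kinase signal relative to plate controls; inconclusive means some but at most half of replicates over 20% loss; inactive means no replicate over 20% signal loss.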",
  "data": [
    {"biological_target": "Glycogen synthase kinase-3 alpha (Homo sapiens) (UniProt P49840)", "sequence (P49840 whole entry, looked up)": "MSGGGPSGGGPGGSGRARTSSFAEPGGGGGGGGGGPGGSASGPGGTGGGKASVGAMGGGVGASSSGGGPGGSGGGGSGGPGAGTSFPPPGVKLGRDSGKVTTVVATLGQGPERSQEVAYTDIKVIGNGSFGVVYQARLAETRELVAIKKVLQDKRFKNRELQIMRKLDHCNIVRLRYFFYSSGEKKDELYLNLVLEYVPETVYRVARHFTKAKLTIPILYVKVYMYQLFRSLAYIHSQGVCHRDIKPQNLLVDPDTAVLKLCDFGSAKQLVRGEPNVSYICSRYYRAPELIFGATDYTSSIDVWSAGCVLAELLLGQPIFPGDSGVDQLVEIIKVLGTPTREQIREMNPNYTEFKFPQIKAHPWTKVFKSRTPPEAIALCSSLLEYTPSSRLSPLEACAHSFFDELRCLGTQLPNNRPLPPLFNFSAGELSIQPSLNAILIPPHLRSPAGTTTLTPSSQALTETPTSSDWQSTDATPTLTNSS", "test": "concentration-response blocking of human GSK3A – biochemical, luminescence, cell-free homogeneous, retest, dose response (AID 463203)", "settings": "GSK-3 alpha enzyme, ADP-Glo luminescence, 60 min", "values": [
      {"smiles": "C=CCOc1ccc(/C=N/n2cncn2)cc1OC", "AC50": "> 30 µM (inactive)"},
      {"smiles": "COCCCNC(=O)C(=O)NC1CCCCCC1", "AC50": "> 30 µM (inactive)"},
      {"smiles": "CC(Oc1ccccc1)C(=O)Nc1nnc(C2CCCCC2)s1", "note": "(stereo not drawn)", "AC50": "> 30 µM (inactive)"},
      {"smiles": "COC(=O)[C@@H]1[C@H](CCc2ccccc2)NC(=O)N(Cc2ccccc2)[C@@H]1C", "AC50": "> 30 µM (inactive)"},
      {"smiles": "O=C(COC(=O)Cc1ccc(F)cc1)Nc1ccc(Cl)cn1", "AC50": "14.1 µM"},
      {"smiles": "C=CCNC(=S)N/N=C(\\C)c1ccc(OC)cc1", "AC50": "> 30 µM (inactive)"},
      {"smiles": "COc1ccc(CC(=S)N2CCOCC2)cc1", "AC50": "> 30 µM (inactive)"},
      {"smiles": "COc1cc(/C=N/Nc2nc(=O)[nH]nc2C)cc([N+](=O)[O-])c1O", "AC50": "22.1 µM"},
      {"smiles": "O=C(CNS(=O)(=O)c1ccccc1)N/N=C/c1ccc(O)cc1", "AC50": "30.2 µM"},
      {"smiles": "Fc1ccc(Nc2ccnc(Nc3ccc(F)cc3)n2)cc1", "AC50": "> 30 µM (inactive)"},
      {"smiles": "Cc1cccc(C(=O)OCC(=O)Nc2c(C)n(C)n(-c3ccccc3)c2=O)c1", "AC50": "> 30 µM (inactive)"},
      {"smiles": "O=C(Nc1cccc(Cl)c1N1CCCC1)c1ccc(Br)o1", "AC50": "> 30 µM (inactive)"},
      {"smiles": "S=C(NCCc1ccccc1)Nc1cccc2cnccc12", "AC50": "> 30 µM (inactive)"},
      {"smiles": "CN(C)c1ccc(CN2CCCCC2)cc1", "AC50": "> 30 µM (inactive)"},
      {"smiles": "COC(=O)[C@@H](NC(=O)NCc1ccccc1Cl)C(C)C", "AC50": "> 30 µM (inactive)"},
      {"smiles": "S=C(NCc1ccc2c(c1)OCO2)NCc1ccc2c(c1)OCO2", "AC50": "25.5 µM"},
      {"smiles": "Clc1ccc(-c2nnc(SCc3nc(-c4ccccc4)no3)o2)cc1", "AC50": "> 30 µM (inactive)"},
      {"smiles": "O=C(Nc1ccccc1C(=O)NC1CCCCC1)c1ccccc1", "AC50": "> 30 µM (inactive)"},
      {"smiles": "CC(C)NC(=O)Nc1ccc(Br)cc1Cl", "AC50": "> 30 µM (inactive)"},
      {"smiles": "COc1ccc(-n2c(C)c([N+](=O)[O-])c3ccc(O)c(CN4CCCCC4)c32)cc1", "AC50": "19.1 µM"},
      {"smiles": "Cc1cccc(C)c1OC(=O)Cc1ccccc1[N+](=O)[O-]", "AC50": "> 30 µM (inactive)"},
      {"smiles": "O=C(CCn1[nH]c(=O)c2ccccc2c1=O)N1CCOCC1", "AC50": "> 30 µM (inactive)"},
      {"smiles": "CC(C)OC(=O)CSc1nc(N)c(C#N)c(-c2ccco2)c1C#N", "AC50": "> 30 µM (inactive)"},
      {"smiles": "CCOc1ccc(-c2nnc(N)s2)cc1", "AC50": "> 30 µM (inactive)"},
      {"smiles": "C/C(=N\\NC(=O)c1nnn(-c2nonc2N)c1CN(C)C)c1ccco1", "AC50": "> 30 µM (inactive)"},
      {"smiles": "CC1(C)Cc2cccc(C(=O)Nc3ccc(Cl)cc3)c2O1", "AC50": "> 30 µM (inactive)"},
      {"smiles": "Cn1ccnc1SCC(=O)Nc1ccc(Cl)cn1", "AC50": "23.1 µM"},
      {"smiles": "O=C(Nc1ccccc1F)Nc1ccccc1OC(F)F", "AC50": "> 30 µM (inactive)"},
      {"smiles": "O=C1c2ccccc2-c2onc3ccc(NCc4ccco4)c1c23", "AC50": "> 30 µM (inactive)"},
      {"smiles": "COc1ccc([N+](=O)[O-])cc1NC(=O)CCN1CCN(CCO)CC1", "AC50": "> 30 µM (inactive)"},
      {"smiles": "C[C@@H]1O[C@@H](Oc2c(-c3ccc(O)c(O)c3)oc3cc(O)cc(O)c3c2=O)[C@H](O)[C@H](O)[C@H]1O", "AC50": "29.8 µM"},
      {"smiles": "CCC(C)[C@H](NC(=O)Nc1ccc(S(N)(=O)=O)cc1)C(=O)O", "note": "(stereo partly drawn)", "AC50": "> 30 µM (inactive)"},
      {"smiles": "CCc1cc(C(=O)c2ccc(OC)cc2)c(NC(=O)COCC(=O)O)s1", "AC50": "> 30 µM (inactive)"},
      {"smiles": "COCCn1c(SCC(=O)Nc2cc(C)on2)nc2ccccc21", "AC50": "> 30 µM (inactive)"},
      {"smiles": "COc1ccc(C2=Nn3c(nnc3-c3ccncc3)SC2)cc1", "AC50": "5.49 µM"},
      {"smiles": "CCN1CCN(c2nc(Nc3ccc(C)c(C)c3)nc(N)c2[N+](=O)[O-])CC1", "AC50": "> 30 µM (inactive)"},
      {"smiles": "Cc1sc(NC(=O)CSc2nc(N)cc(N)n2)c(C#N)c1C", "AC50": "> 30 µM (inactive)"},
      {"smiles": "S=c1sc2ccccc2n1CCc1ccncc1", "AC50": "4.51 µM"},
      {"smiles": "CCOC(=O)C(CC)Sc1ccc2nnc(-c3cccnc3)n2n1", "note": "(stereo not drawn)", "AC50": "> 30 µM (inactive)"},
      {"smiles": "CC(=O)Oc1ccc(C(=O)c2ccccc2)c(OC(C)=O)c1", "AC50": "> 30 µM (inactive)"},
      {"smiles": "Oc1[nH]c2ccc(Br)cc2c1N=Nc1ccc(F)cc1", "AC50": "7.48 µM"},
      {"smiles": "COc1ccc(C(=O)c2sc(Nc3ccccc3)c(C(=O)Nc3ccc(OC)c(OC)c3)c2N)cc1", "AC50": "> 30 µM (inactive)"},
      {"smiles": "COc1ccc(Cn2nnc(C(=O)Nc3ccc(F)cc3)c2N)cc1", "AC50": "> 30 µM (inactive)"},
      {"smiles": "COc1ccc(NC2CC(=O)NC2=O)cc1", "note": "(stereo not drawn)", "AC50": "> 30 µM (inactive)"},
      {"smiles": "O=C(Nc1sc2c(c1C(=O)N1CCOCC1)CCCCC2)c1cccnc1", "AC50": "> 30 µM (inactive)"},
      {"smiles": "COC(=O)c1cn(C(=O)c2ccccc2F)nc1N", "AC50": "> 30 µM (inactive)"},
      {"smiles": "CC(/C=N/NC(=O)CSc1nc2ccccc2n1C)=C\\c1ccco1", "AC50": "> 30 µM (inactive)"},
      {"smiles": "COc1ccc(CC(=S)N2CCOCC2)cc1OC", "AC50": "> 30 µM (inactive)"},
      {"smiles": "COCCCNc1c2c(nc3nnnn13)CCCC2", "AC50": "> 30 µM (inactive)"},
      {"smiles": "COc1ccc(Nc2ccc(S(=O)(=O)N3CCCCC3)cc2[N+](=O)[O-])cc1OC", "AC50": "> 30 µM (inactive)"},
      {"smiles": "COc1ccc(Nc2sc(C(=O)c3ccc(Cl)cc3)c(N)c2C(=O)Nc2ccccc2OC)cc1", "AC50": "> 30 µM (inactive)"},
      {"smiles": "COc1ccc(OC)c(NC(=O)c2nnn(Cc3ccc(Br)cc3F)c2N)c1", "AC50": "> 30 µM (inactive)"},
      {"smiles": "O=[N+]([O-])c1cnc2nc(-c3ccncc3)nn2c1O", "AC50": "8.27 µM"},
      {"smiles": "O=c1cc[nH]c2ccc(OC(F)(F)F)cc12", "AC50": "> 30 µM (inactive)"},
      {"smiles": "CCOC(=O)c1cnc2c(C)c(Cl)ccc2c1N1CCN(CC)CC1", "AC50": "> 30 µM (inactive)"},
      {"smiles": "Cc1cccc(NC(=O)c2sc(Cl)nc2-c2ccccc2)c1", "AC50": "> 30 µM (inactive)"},
      {"smiles": "COc1cc(/C=N/n2nnnc2N)ccc1OCC#N", "AC50": "> 30 µM (inactive)"},
      {"smiles": "Cc1ccc(N(CC(O)CN2CCCCC2)S(=O)(=O)c2ccccc2)cc1", "note": "(stereo not drawn)", "AC50": "> 30 µM (inactive)"},
      {"smiles": "Cn1cnc(C(=O)NC2CCN(C(=O)OC(C)(C)C)CC2)c1C(=O)NC1CCN(C(=O)OC(C)(C)C)CC1", "AC50": "> 30 µM (inactive)"},
      {"smiles": "CSc1ncccc1-c1nc2ccccc2[nH]1", "AC50": "> 30 µM (inactive)"},
      {"smiles": "NNC(=O)CCCCCCCCCCOCCCCO", "AC50": "> 30 µM (inactive)"},
      {"smiles": "COC(=O)C1=C(C)Nc2ncnn2C1c1ccccn1", "note": "(stereo not drawn)", "AC50": "> 30 µM (inactive)"},
      {"smiles": "NC1=NC(=O)/C(=C\\c2ccc(-c3ccc(Cl)cc3)o2)S1", "AC50": "1.4 µM"},
      {"smiles": "COc1ccc(C(=O)c2ccccc2Cl)cc1", "AC50": "> 30 µM (inactive)"},
      {"smiles": "COc1ccc(-c2nc(N)ncc2-c2ccccc2)c(O)c1", "AC50": "15.5 µM"},
      {"smiles": "CN1CCCN(C(=O)CC(c2ccccc2)c2ccccc2)CC1", "AC50": "> 30 µM (inactive)"},
      {"smiles": "CC1(C)CC(=O)C2=C(C1)Nc1[nH]n(-c3ccccc3)c(=O)c1C2c1ccc2c(c1)OCO2", "note": "(stereo not drawn)", "AC50": "> 30 µM (inactive)"},
      {"smiles": "COc1cccc(/C=C2\\SC(=O)NC2=O)c1OCc1ccc(C(=O)O)cc1", "AC50": "26.9 µM"},
      {"smiles": "Cn1cnnc1SCC(=O)Nc1ncc([N+](=O)[O-])s1", "AC50": "> 30 µM (inactive)"},
      {"smiles": "COc1ccc(C(CNc2ccc(S(=O)(=O)N3CCCC3)cc2[N+](=O)[O-])N2CCCC2)cc1", "note": "(stereo not drawn)", "AC50": "> 30 µM (inactive)"},
      {"smiles": "CC1CCCC(C)N1C(=O)COC(=O)Cc1c[nH]c2ccccc12", "note": "(stereo not drawn)", "AC50": "> 30 µM (inactive)"},
      {"smiles": "CCOC(=O)c1cnc2cc(F)c(F)cc2c1N1CCN(C)CC1", "AC50": "> 30 µM (inactive)"},
      {"smiles": "O=c1cc(-c2ccco2)oc2c1ccc1ccccc12", "AC50": "7.17 µM"},
      {"smiles": "O=C(N/N=C/c1ccccn1)c1cccc(NC(=O)c2ccccc2Cl)c1", "AC50": "15.9 µM"},
      {"smiles": "Nc1c(CO)nnn1-c1ccccc1", "AC50": "11.4 µM"},
      {"smiles": "Cn1c(N=Nc2ccccc2)nc2ccccc21", "AC50": "21.1 µM"},
      {"smiles": "CC(C)CCSc1cc(NCCO)c([N+](=O)[O-])c2nonc12", "AC50": "> 30 µM (inactive)"},
      {"smiles": "CCc1ccc(NC(=O)N[C@H](C(=O)O)C(C)CC)cc1", "note": "(stereo partly drawn)", "AC50": "> 30 µM (inactive)"},
      {"smiles": "Cc1ccc(CSCCNC(=O)c2ccccc2)cc1", "AC50": "> 30 µM (inactive)"},
      {"smiles": "CCN=C(NC#N)SCc1c(F)cccc1Cl", "AC50": "> 30 µM (inactive)"},
      {"smiles": "O=[N+]([O-])c1ccc(O)c(CN2CCCCCC2)c1", "AC50": "> 30 µM (inactive)"},
      {"smiles": "CCOC1(OCC)N=C(N)C2(C#N)C(c3cccc(C)c3)C12C#N", "note": "(stereo not drawn)", "AC50": "> 30 µM (inactive)"},
      {"smiles": "CCCN(CCC)Cc1c(C(=O)N/N=C/C(C)=C\\c2ccco2)nnn1-c1nonc1N", "AC50": "> 30 µM (inactive)"},
      {"smiles": "CN(C)C(=O)Oc1ccc([N+](=O)[O-])cc1", "AC50": "> 30 µM (inactive)"},
      {"smiles": "COc1ccc(Nc2nc(-c3cc4cccc(OC)c4oc3=O)cs2)cc1", "AC50": "> 30 µM (inactive)"},
      {"smiles": "CCOC(=O)c1ccc(NC(=S)NCCc2ccccc2)cc1", "AC50": "> 30 µM (inactive)"},
      {"smiles": "O=C(O)CCSc1nnc(-c2ccncc2)n1-c1ccccc1", "AC50": "> 30 µM (inactive)"},
      {"smiles": "Cc1nc(NCCc2ccccc2)c(C#N)c(C)c1[N+](=O)[O-]", "AC50": "> 30 µM (inactive)"},
      {"smiles": "O=C(CSc1ccc(F)cc1)Nc1ccc2c(c1)C(=O)NC2=O", "AC50": "12.5 µM"},
      {"smiles": "C[C@H](CO)N1C[C@H](C)[C@@H](CN(C)S(=O)(=O)c2ccccc2)Oc2c(NC(=O)c3ccncc3)cccc2C1=O", "AC50": "> 30 µM (inactive)"},
      {"smiles": "O=c1cc(-c2ccncc2)oc2c1ccc1ccccc12", "AC50": "0.312 µM"},
      {"smiles": "N#CC1=C2SCN(c3ccccc3)CN2C(=O)CC1c1ccccc1Cl", "note": "(stereo not drawn)", "AC50": "> 30 µM (inactive)"},
      {"smiles": "N#Cc1c(NC(=O)CSc2n[nH]c(N)n2)oc(-c2ccccc2)c1-c1ccccc1", "AC50": "> 30 µM (inactive)"}
    ]}
  ]
}
